The target in this assay is Bcl-2 (Homo sapiens, UniProt P10415). The assay can be described thus: Homogeneous HTS assay for inhibitors of the Bcl-2 : Bak (72-87) BH3 domain interaction, fluorescence polarisation (2D-FIDA). It is filed as binding. The text has this:
FIG. 1 is a schematic drawing of the Bcl-2: Bak (72-87) interaction assay based on fluorescence polarisation.
The homogeneous HTS assay for inhibitors of the Bcl-2 is shown schematically in FIG. 1. BH3 domain interaction is based on fluorescence polarisation. The inherent rotational diffusion of the Bak BH3 domain derived fluorescent labelled peptide decreases upon binding to Bc1-2. This shift in rotational diffusion is quantitated using the two-dimensional fluorescence intensity distribution analysis (2D-FIDA; Kask et al. 2000, Biophys. J. 78: 1703-1713).
Two different BH3 domain derived peptide ligands were synthesised and subsequently fluorescently labelled: • a 16mer peptide covering amino acids 72-87 of the Bak protein; this peptide had been used by Wang and co-workers and Holinger and coworkers in their Bcl-2 protein binding studies; Wang and co-workers reported an equilibrium binding constant KD of ˜0.2 μM to Bcl-2 protein; • peptide sequence: GQVGRQLAIIGDDINR—N (Wang et al. 2002, Proc. Natl. Acad. Sci. U.S.A. 97: 7124-7129; Holinger et al. 1999, J. Biol. Chem. 274: 13298-13304).
A general note: Fluorescence polarisation rises when a labelled molecule tumbles more slowly, as on binding a larger partner.

[1] abbreviates: fluorescence polarisation, fluorescent labelled Bak BH3 domain derived peptide, read-out: IC50 [μM] Bcl-2.

What is called IC50 is the concentration at which inhibition is half-maximal.

Where two headings read alike, the source gives them in different places.

Chain of Bcl-2 (P10415 whole entry, species assumed, the tested form may be a part): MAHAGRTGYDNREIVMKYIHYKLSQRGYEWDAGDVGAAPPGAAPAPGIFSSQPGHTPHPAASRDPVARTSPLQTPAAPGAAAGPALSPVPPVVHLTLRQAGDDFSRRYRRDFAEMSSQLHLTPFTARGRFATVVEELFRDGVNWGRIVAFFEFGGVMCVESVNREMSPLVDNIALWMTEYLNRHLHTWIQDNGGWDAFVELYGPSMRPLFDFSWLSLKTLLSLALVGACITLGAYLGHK

`N=c1n(CCCOc2ccc(F)cc2)c2ccccc2n1Cc1ccc(CN2CCN(Cc3cccc(Cl)c3)CC2)cc1` [Compound 47, 1-{4-[4-(3-Chloro-benzyl)-piperazin-1-ylmethyl]-benzyl}-3-[3-(4-fluoro-phenoxy)-propyl]-1,3-dihydro-benzoimidazol-2-ylideneamine]: the IC50 under setting [1] is under 10 µM. Still for that read-out and setting: the result for `N=c1n(CCCOc2ccc(F)cc2)c2ccccc2n1Cc1ccc(CN2CCN(Cc3ccccc3Cl)CC2)cc1` [Compound 48, 1-{4-[4-(2-Chloro-benzyl)-piperazin-1-ylmethyl]-benzyl}-3-[3-(4-fluoro-phenoxy)-propyl]-1,3-dihydro-benzoimidazol-2-ylideneamine] reads 11 to 100 µM; that for `N=c1n(CCCOc2ccc(F)cc2)c2ccccc2n1Cc1ccc(CN2CCN(Cc3ccccc3-c3ccccc3)CC2)cc1` [Compound 49, 1-[4-(4-Biphenyl-2-ylmethyl-piperazin-1-ylmethyl)-benzyl]-3-[3-(4-fluoro-phenoxy)-propyl]-1,3-dihydro-benzoimidazol-2-ylideneamine], 11 to 100 µM; that for `N=c1n(CCCOc2ccc(F)cc2)c2ccccc2n1Cc1ccc(CNCC(=O)Nc2cccc(Cl)c2)cc1` [Compound 50, N-(3-Chloro-phenyl)-2-(4-{3-[3-(4-fluoro-phenoxy)-propyl]-2-imino-2,3-dihydro-benzoimidazol-1-ylmethyl}-benzylamino)-acetamide], 11 to 100 µM.

On to `N=c1n(CCCOc2ccc(F)cc2)c2ccccc2n1Cc1ccc(CNCC(=O)Nc2ccccc2)cc1` [Compound 51, 2-(4-{3-[3-(4-Fluoro-phenoxy)-propyl]-2-imino-2,3-dihydro-benzoimidazol-1-ylmethyl}-benzylamino)-N-phenyl-acetamide], for which the IC50 under setting [1] is 11 to 100 µM. As for `N=c1n(CCCOc2ccc(F)cc2)c2ccccc2n1Cc1ccc(Cl)nc1` [Compound 52, 1-(6-Chloro-pyridin-3-ylmethyl)-3-[3-(4-fluoro-phenoxy)-propyl]-1,3-dihydro-benzoimidazol-2-ylideneamine], the IC50 was in the range of 11 to 100 µM. As for `N=c1n(CCCOc2ccc(F)cc2)c2ccccc2n1Cc1ccc(N2CCN(Cc3ccccc3)CC2)nc1` [Compound 53, 1-[6-(4-Benzyl-piperazin-1-yl)-pyridin-3-ylmethyl]-3-[3-(4-fluoro-phenoxy)-propyl]-1,3-dihydro-benzoimidazol-2-ylideneamine], the IC50 under setting [1] is 11 to 100 µM. Same read-out and setting: the result for `N=c1n(CCCOc2ccc(F)cc2)c2ccccc2n1Cc1ccc(N2CCN(Cc3cccc(Cl)c3)CC2)nc1` [Compound 54, 1-{6-[4-(3-Chloro-benzyl)-piperazin-1-yl]-pyridin-3-ylmethyl}-3-[3-(4-fluoro-phenoxy)-propyl]-1,3-dihydro-benzoimidazol-2-ylideneamine] reads 11 to 100 µM; that for `N=c1n(CCCOc2ccc(F)cc2)c2ccccc2n1Cc1ccc(N2CCN(Cc3ccc(Cl)cc3)CC2)nc1` [Compound 55, 1-{6-[4-(4-Chloro-benzyl)-piperazin-1-yl]-pyridin-3-ylmethyl}-3-[3-(4-fluoro-phenoxy)-propyl]-1,3-dihydro-benzoimidazol-2-ylideneamine], 11 to 100 µM; that for `N=c1n(CCCOc2ccc(F)cc2)c2ccccc2n1Cc1ccc(N2CCN(Cc3ccccc3-c3ccccc3)CC2)nc1` [Compound 56, 1-[6-(4-Biphenyl-2-ylmethyl-piperazin-1-yl)-pyridin-3-ylmethyl]-3-[3-(4-fluoro-phenoxy)-propyl]-1,3-dihydro-benzoimidazol-2-ylideneamine], under 10 µM. Consider `N=c1n(CCCOc2ccc(F)cc2)c2ccccc2n1Cc1ccc(N2CCN(Cc3ccccc3Cl)CC2)nc1` [Compound 57, 1-{6-[4-(2-Chloro-benzyl)-piperazin-1-yl]-pyridin-3-ylmethyl}-3-[3-(4-fluoro-phenoxy)-propyl]-1,3-dihydro-benzoimidazol-2-ylideneamine], for which the IC50 under setting [1] fell in the range of 11 to 100 µM.

As for `Cc1ccc2c(c1)n(Cc1ccc(Br)cc1)c(=N)n2CCCOc1ccc(F)cc1` [Compound 58, 3-(4-Bromo-benzyl)-1-[3-(4-fluoro-phenoxy)-propyl]-5-methyl-1,3-dihydro-benzoimidazol-2-ylideneamine], the IC50 under setting [1] is 11 to 100 µM.

(Values after US8759520B2, “Compounds for treating cancer” (Boehringer Ingelheim International GmbH, priority 2008, dated 2014).)
